Measurements: patent US20080255090A1, “Ceratamines A and B, and Analogues, Syntheses and Pharmaceutical Compositions Thereof” (THE UNIVERSITY OF BRITISH COLUMBIA, priority 2003, published 2008)
In brackets after ≈: the same amount, converted by molar mass.

System: mitotic arrest
Test: cell-based ELICA assay that detects mitotic arrest (Roberge et al. 2000)
Settings: cell-based ELICA assay of Roberge et al. (2000) Cancer Res. 60:5052
Description: As part of a program to discover new antimitotic natural products, extracts of marine invertebrates are screened in a cell-based assay that detects mitotic arrest (Roberge, M. et al. (2000) Cancer Res. 60:5052). […] The compounds described below, their salts, prodrugs and pharmaceutical compositions thereof are all contemplated within the scope of this invention.
Methods suitable for assaying antimitotic activity of compounds of this invention or compounds used as precursors, may be based on any of a variety of known methodologies including microscopic examination of cells to determine if they are arrested in mitosis. Particularly useful methods employ antibodies specific for mitotic cells, such as the method described in the international patent application published under WO 99/15157 or the assays described in WO 01/38339 and in Roberge et al. (2000) Cancer Res. 60:5052. Assays will typically employ cells which regularly divide in culture (e.g. cancer cells). […]
Immunological methods useful for determination of mitotic cells in an assay include any method for determining antibody-antigen binding, including: immunocytochemistry (e.g. immunofluorescence), flow cytometry, immunoblotting, and ELISA, including those described in Vincent, I. et al. [supra]. High throughput testing of samples may be readily achieved by use of the ELISA or the ELICA assays described in WO 01/38339. […]

| IC50 (read-out: IC50, antimitotic activity in the cell-based ELICA assay) | IC50, antimitotic activity in the cell-based ELICA assay | Compound |
| --- | --- | --- |
| 10 µg/mL (≈ 21.4 µM) | – | CNc1nc2ccn(C)c(=O)c(Cc3cc(Br)c(OC)c(Br)c3)c-2n1 [Heterocycle 1, ceratamine A] |
| – | 10 µg/mL | ceratamine B [Heterocycle 2] |
